# Measured values as given in paper PMC10206591, “Identification of small molecules capable of enhancing viral membrane fusion” (Virology Journal, 2023).
# “And” between values parts separate entries of the source, which are not always exact repeats. Equal values may be shown once.
# How the values were obtained:
# [1] = system: SARS-CoV-2; format: cell-based
# [2] = system: IAV/WSN/33; format: cell-based, Influenza A virus
# [3] = system: Vero E6 cells; experiment: Cell viability, Cell-Titer Glo (ATP levels), Vero E6; format: cell-based; settings: 48 h, Fig. 6C
# Experimental: (§1) The toxicity of the compounds was evaluated with Cell-Titer Glo (Promega) following the manufacturer’s indications. Briefly, cells were seeded (~ 1 × 10^4 cells/plate) in an opaque white 96-well plate and treated with the appropriate compound at the indicated concentration for 48 h. Next, 100 µl of CellTiter-Glo® reagent was added and let the luminescence signal stabilizes for 10 min. The luminescence was recorded on a VictorX multi-plate reader (Perking Elmer, Waltham, MA, USA).
# (§2) Fig. 6 Toxicity of hit compounds. A, B The toxicity in Hek 293T and Vero E6 cells (A and B, respectively) was analyzed after incubating the compounds at the indicated concentration for 48 h. Toxicity was analyzed by measuring ATP levels using the Cell-Titer Glo assay (Promega) following the manufacturer’s indications. Dots represent the average of at least three independent experiments. C The CC10, CC50, and CC90 values were calculated with the data shown in panels A and B TEXT PRINTED IN THE PICTURE: (C) Latanoprost: Hek293T CC10 (μM): 16.2; Hek293T CC50 (μM): 63.9; Hek293T CC90 (μM): 270; Vero E6 CC10 (μM): 76.9; Vero E6 CC50 (μM): 124; Vero E6 CC90 (μM): 171 | (C) Diperodon: Hek293T CC10 (μM): 14.2; Hek293T CC50 (μM): 41; Hek293T CC90 (μM): 98.3; Vero E6 CC10 (μM): 24; Vero E6 CC50 (μM): 88; Vero E6 CC90 (μM): 153 | (C) Ethynylestradiol: Hek293T CC10 (μM): 11.8; Hek293T CC50 (μM): 49.9; Hek293T CC90 (μM): 169.9; Vero E6 CC10 (μM): 13.6; Vero E6 CC50 (μM): 96.6; Vero E6 CC90 (μM): 224 | (C) Simvastatin: Hek293T CC10 (μM): 8.0; Hek293T CC50 (μM): 34.2; Hek293T CC90 (μM): 125.8; Vero E6 CC10 (μM): 3.11; Vero E6 CC50 (μM): 6.02; Vero E6 CC90 (μM): 61.2 | (C) Rabeprazol: Hek293T CC10 (μM): 14.3; Hek293T CC50 (μM): 38.1; Hek293T CC90 (μM): 83.6; Vero E6 CC10 (μM): 51.6; Vero E6 CC50 (μM): 122.8; Vero E6 CC90 (μM): 194 | (C) Ethaverine: Hek293T CC10 (μM): 9.7; Hek293T CC50 (μM): 43.8; Hek293T CC90 (μM): 120.7; Vero E6 CC10 (μM): 45; Vero E6 CC50 (μM): 119.8; Vero E6 CC90 (μM): 194.7
# [4] = as above; format: cell-based; settings: African green monkey, Fig. 6C; for CC50 / CC90: 48 h
# Experimental: as §1, §2
# [5] = system: SARS-CoV-2 S-mediated membrane fusion
# [6] = system: SARS-CoV-2 S-mediated membrane fusion in the presence of TMPRSS2
# [7] = system: Nipah virus membrane fusion; format: cell-based; settings: Hek 293T, NiV F and G, 48 h
# [8] = Cell viability, Cell-Titer Glo (ATP levels), Hek 293T; format: cell-based; settings: human; for CC50 / CC90: 48 h
# Experimental: as §1, §2
# [9] = system: Hek 293T cells; experiment: as above; format: cell-based; settings: 48 h, Fig. 6C
# Experimental: as §1, §2
# [10] = system: Hek 293T cells; experiment: as above; format: cell-based; settings: Hek 293T transfected with TMPRSS2 or eYFP, Fig. S2
# [11] = Table 1, Hek 293T, read-out: CC50
# [12] = Fig. 6C, read-out: Hek293T CC50
# [13] = Fig. 6C, read-out: Hek293T CC90
SMILES,"SARS-CoV-2 titer, Average [1]",effect on SARS-CoV-2 viral titers (in words) [1],effect on IAV titers (in words) [2],Vero E6 CC10 [3] [µM],CC50 [4] [µM],CC90 [4] [µM],"Activity index (Fusion % at CC50/CC50), NO TMPRSS2 [5]","Fusion % at CC50, NO TMPRSS2 [5]","Activity index (Fusion % at CC50/CC50), TMPRSS2 [6]","Fusion % at CC50, TMPRSS2 [6]",effect on NiV-induced membrane fusion (in words) [7],"CC50 [8, 11] [µM]","CC50 [8, 12] [µM]","CC90 [8, 13] [µM]",Hek293T CC10 [9] [µM],increase in viral-induced membrane fusion (in words) [5],further results
COCCCOc1ccnc(C[S+]([O-])c2nc3ccccc3[nH]2)c1C (centres unmarked) [Rabeprazol],3.2x10^6 pfu/mL and 4.2x10^6 pfu/mL and 6.1x10^6 pfu/mL,increased viral titers,did not increase viral titers,51.6,123,194,"4,70","179,16%","6,39","243,51%",enhance viral-mediated membrane fusion in a mild dose-dependent manner,38.1,38.1,83.6,14.3,–,–
CCC(C)(C)C(=O)O[C@H]1C[C@@H](C)C=C2C=C[C@H](C)[C@H](CC[C@@H]3C[C@@H](O)CC(=O)O3)[C@H]21 [Simvastatin],–,–,–,3.11,–,–,"5,03","172,00%","4,79","163,57%",–,–,–,–,8.0,stronger inducers,"CC50 [3]: 6.02 µM; CC50 at 48 h [4]: ~6 µM; CC90 at 48 h [4]: 61.2 µM; Z-score [5]: 1,72; CC50 at 48 h [8, 12]: 34.2 µM; CC90 at 48 h [8, 13]: 126 µM; CC50 at 48 h [8, 11]: 34.2 µM"
CC(C)OC(=O)CCC/C=C\C[C@@H]1[C@@H](CC[C@@H](O)CCc2ccccc2)[C@H](O)C[C@@H]1O [Latanoprost],–,–,–,76.9,124,171,"1,11","70,98%","2,39","152,75%",–,63.9,63.9,270,16.2,stronger inducers,–
O=C(Nc1ccccc1)OCC(CN1CCCCC1)OC(=O)Nc1ccccc1 (centres unmarked) [Diperodon],–,–,–,24,88,153,"3,03","123,98%","3,39","138,77%",–,41,41,98.3,14.2,–,–
CCOc1ccc(Cc2nccc3cc(OCC)c(OCC)cc23)cc1OCC [Ethaverine],–,did not increase or accelerate the growth,did not increase viral titers,45,120,195,"2,86","125,39%","9,56","419,22%",enhance viral-mediated membrane fusion in a mild dose-dependent manner,43.8,43.8,121,9.7,–,–
C#C[C@]1(O)CC[C@H]2[C@@H]3CCc4cc(O)ccc4[C@H]3CC[C@@]21C [Ethynylestradiol],2.6x10^6 pfu/mL and 3.6x10^6 pfu/mL and 5.0x10^6 pfu/mL,increased viral titers,increases IAV titers by approximately one log,13.6,96.6,224,"3,25","162,00%","6,27","312,60%",enhance viral-mediated membrane fusion in a mild dose-dependent manner,49.9,49.9,170,11.8,stronger inducers,toxicity in the presence of TMPRSS2 (in words) [10]: compound toxicity was not affected by the presence of the cellular protease
